Tests used:
HCV 1b replicon = assay: HCV GT1b replicon assay in Huh-7 cells; type: cell-based, Hepatitis C virus; conditions: Hepatitis C virus; Huh-7 cells transfected with HCV replicon, 72 hours incubation; read-out: EC50 against HCV 1b genotype
Procedure: (§1) HCV Replicon System was utilized as an evaluation model in the present disclosure for verifying the effects of the compounds disclosed herein on HCV. An HCV Replicon assay was first described in Science, 1999, 285 (5424), 110-3. […] To determine the potential anti-HCV effects of the test compounds, luciferase assay and antibiotic Neomycin resistance gene were tested according to the method described in Science. 1999 Jul. 2; 285 (5424), 110-3 and J. Virol. 2003 March; 77 (5), 3007-19.
(§2) In a word, the compounds disclosed herein were tested by using human hepatic carcinoma cell line which is transfected stably HCV GT1a, GT1b or GT2a replicon respectively, and resistant cells Y93H, L31F, P32L or I302V and wild-type cells HCV 1b. HCV Replicon System disclosed herein containing Neomycin resistance gene and Luciferase Reporter Gene, the level of HCV replication in host cells is characterized by the expression level of the NEO gene expression level or Luciferase Reporter Gene, and the effects of the compounds herein inhibit HCV replication can be evaluated. In this article, a real-time quantitative polymerase chain reaction (qPCR) method was used to detect NEO gene expression level, and chemiluminescence method was used to test Luciferase Reporter Gene expression level.
(§3) 1. Test Method for Measuring EC50 of the Compounds Base on Luciferase Assay.
(§4) The Huh-7 cells transfected with HCV replicons system were seeded into 96-well plates (8,000 cells in 125 μL/well) respectively; each test compound was diluted to desired concentration using 5-fold serial dilutions protocol, 10 doses in duplicate, and added to wells with POD™ 810 Plate Assembler. […] In this paper, experiments were repeated twice and set the holes without compounds as negative control.
(§5) 2. Test Method for Measuring EC50 of the Compounds by Detecting Antibiotic G418 Resistance Gene NEO Gene.
(§6) In this paper, experiments were repeated twice and set the holes without compounds as negative control.

HCV 1a replicon = assay: HCV GT1a replicon assay in Huh-7 cells; type: cell-based, Hepatitis C virus; conditions: Hepatitis C virus; Huh-7 cells transfected with HCV replicon, 72 hours incubation; read-out: EC50 against HCV 1a genotype
Procedure: as §1, §2, §3, §4, §5, §6

SMILES | EC50 (HCV 1b replicon) [pM] | EC50 (HCV 1a replicon) [pM]
COC(=O)N[C@H](C(=O)N1CCC[C@H]1c1ncc(-c2ccc(-c3ccc(-c4ccc5nc([C@@H]6CC7CC7N6C(=O)[C@@H](NC(=O)OC)C(C)C)[nH]c(=O)c5c4)c4c3CC3(CCCC3)C4)c3ccccc23)[nH]1)C(C)C (stereo partly shown) [Example 26] | 216 | 727
COC(=O)N[C@H](C(=O)N1CCC[C@H]1c1ncc(-c2ccc(-c3ccc(-c4ccc5nc([C@@H]6CC7CC7N6C(=O)[C@@H](NC(=O)OC)C(C)C)[nH]c(=O)c5c4)c4c3CC3(CCCC3)C4)c3cnoc23)[nH]1)C(C)C (stereo partly shown) [Example 27] | 323 | 1530
COC(=O)N[C@H](C(=O)N1CCC[C@H]1c1ncc(-c2ccc(-c3sc(-c4ccc5nc([C@@H]6CCCN6C(=O)[C@@H](NC(=O)OC)C(C)C)[nH]c(=O)c5c4)c4c3CC3(CCCC3)C4)cc2)[nH]1)C(C)C [Example 28] | 763 | 1100
COC(=O)N[C@H](C(=O)N1CCC[C@H]1C1=Nc2cc(-c3cnc(-c4ccc(-c5cnc([C@@H]6CCCN6C(=O)[C@@H](NC(=O)OC)C(C)C)[nH]5)cc4)c4c3CC3(CCCC3)C4)ccc2S(=O)(=O)N1)C(C)C [Example 29] | 9 | 61
COC(=O)N[C@H](C(=O)N1CCC[C@H]1c1ncc(-c2ccc(-c3ncc(-c4ccc5nc([C@@H]6CCCN6C(=O)[C@@H](NC(=O)OC)C(C)C)[nH]c5c4)c4c3CC3(CCCC3)C4)c3c2CCC3)[nH]1)C(C)C [Example 30] | 52 | 336
COC(=O)N[C@H](C(=O)N1CCC[C@H]1c1ncc(-c2ccc(-c3ncc(-c4ccc5nc([C@@H]6CCCN6C(=O)[C@@H](NC(=O)OC)C(C)C)[nH]c5c4)c4c3CC3(CCCC3)C4)c3ccccc23)[nH]1)C(C)C [Example 31] | 539 | 5870
COC(=O)N[C@H](C(=O)N1CCC[C@H]1c1ncc(-c2ccc(-c3sc(-c4ccc5nc([C@@H]6CCCN6C(=O)[C@@H](NC(=O)OC)C(C)C)[nH]c5c4)c4c3CC3(CCCC3)C4)c3cnoc23)[nH]1)C(C)C [Example 32] | 446 | 10300
COC(=O)NC(C(=O)N1CCC[C@H]1c1ncc(-c2ccc(-c3cc(F)c(-c4ccc5nc([C@@H]6CCCN6C(=O)[C@@H](NC(=O)OC)C(C)C)[nH]c(=O)c5c4)c4c3CC3(CCCC3)C4)nc2)[nH]1)C(C)C (stereo partly shown) [Example 33] | 22 | 78
COC(=O)NC(C(=O)N1CCC[C@@H]1c1ncc(-c2ccc(-c3ccc(-c4ccc5nc([C@@H]6CCCN6C(=O)[C@@H](NC(=O)OC)C(C)C)[nH]c(=O)c5c4)c4c3CC3(CCCC3)C4)cc2)[nH]1)C(C)C (stereo partly shown) [Example 34] | 55 | 641
COC(=O)NC(C(=O)N1CCCC1c1cc(=O)c2cc(-c3ccc(-c4ccc(-c5cnc(C6CCCN6C(=O)C(NC(=O)OC)C(C)C)[nH]5)cc4)c4c3CC3(CCCC3)C4)ccc2[nH]1)C(C)C (stereo not shown) [Example 35] | 103 | 10600
COC(=O)NC(C(=O)N1CCCC1C1=Nc2cc(-c3ccc(-c4ccc(-c5cnc(C6CCCN6C(=O)C(NC(=O)OC)C(C)C)[nH]5)cc4)c4c3CC3(CCCC3)C4)ccc2C(C)(C)N1)C(C)C (stereo not shown) [Example 36] | 62 | 438

— US9416139B2, “Spiro ring compound as hepatitis C virus (HCV) inhibitor and uses thereof” (SUNSHINE LAKE PHARMA CO., LTD., priority 2012, dated 2016)
